Source: paper PMC10350922, “Allosteric Inhibitors of Macrophage Migration Inhibitory Factor (MIF) Interfere with Apoptosis-Inducing Factor (AIF) Co-Localization to Prevent Parthanatos” (Journal of Medicinal Chemistry, 2023)
Read-outs that look alike come from different tables or passages of the source.

Legend:
HeLa cells [1] = assay: Cell morphology after MNNG treatment; assay type: cell-based; conditions: pretreatment with 6y, dose- and time-dependent
Description: In addition, cellular morphology was investigated to see if the MIF inhibitor 6y restores the original phenotype.

[2] = Solubility observation in the MST experiment; assay type: physicochemical; conditions: at concentrations higher than 1000 μM, PBS-T with 5% DMSO
Procedure: (§1) A microscale thermophoresis (MST) assay was performed to confirm the binding of 6y to MIF. […] Overall, we concluded that 6y binds reversibly to an allosteric binding site that affects MIF tautomerase activity.

MIF/AIF binding = target: T1, MIF/AIF binding (Homo sapiens, UniProt P14174); assay: MIF/AIF binding ELISA; conditions: MIF-coated plate, his-tagged AIF 4 μM
T1 construct: host or cells: Escherichia coli BL21 (MIF)
T1 sequence (P14174 2-115 limits assumed): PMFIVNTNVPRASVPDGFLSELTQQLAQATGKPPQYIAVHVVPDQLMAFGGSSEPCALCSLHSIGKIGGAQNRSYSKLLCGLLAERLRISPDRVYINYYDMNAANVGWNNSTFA
Procedure: Next, we investigated the mechanism by which 6y protects genome DNA. Considering that […] is a crucial step in parthanatos, we tested if 6y interferes with MIF/AIF binding in vitro. […] Under control conditions, MIF and AIF are mainly located in the cytosol. […] Human recombinant untagged MIF was diluted in the binding buffer (Tris-HCl 100 mM, 5 mM MgCl2, 150 mM NaCl, pH 8.5) to a final concentration of 250 nM. 100 μL of MIF solution was used to coat each well of a high-binding 96-well plate overnight at 4 °C. […] After 2 h incubation, the plate was washed three times with washing buffer and incubated with anti-poly-Histidine–peroxidase antibody (Sigma, Amsterdam, the Netherlands) for 30 min. After washing, 100 μL of mixed HRP substrate reagent (R&D Systems, Minneapolis) was added, and the colorizing reaction was stopped by adding 100 μL of 1N sulfuric acid. The absorbance at 450 nm was determined with the correction at […] via a Synergy H1 plate reader.

HeLa cells [3] = assay: Cell viability (MTS) assay, MNNG-induced parthanatos; assay type: cell-based; conditions: 3 h pretreatment, MNNG 50 μM 15 min, 24 h, MTS, read-out: EC50, protection from MNNG-induced parthanatos
MIF [4] = target: T2, MIF (Homo sapiens, UniProt P14174); assay: Microscale thermophoresis (MST) binding assay; conditions: 25 °C, RED-tris-NTA labeled MIF
T2 construct: made in house; host or cells: Escherichia coli BL21, pET-20b(p) plasmid
T2 sequence (P14174 2-115 limits assumed): T1 sequence (P14174 2-115 limits assumed)
Procedure: as §1
MST experiments were performed on a Monolith NT.115 system (NanoTemper Technologies) using 100% LED and 60% IR-laser power. Laser on and off times were set at 30 and 5 s, respectively. A 100 nM dye solution RED-tris-NTA was prepared by mixing 2 μL of the dye (5 μM in DMSO) and 98 μL of PBS-T. The protein concentration was adjusted to 200 nM, and 100 μL of this solution was added to the tube with dye and incubated at rt for 30 min. Meanwhile, a twofold dilution series of compound 6y was prepared in PBS-T containing 5% DMSO. Subsequently, 10 μL of labeled MIF was mixed with 10 μL of the samples with 16 different concentrations of 6y ranging from 2000 to 0.06 μM. The samples were centrifuged for 10 min at rt and the supernatant was transferred into fresh tubes. After that, the standard treated capillaries (K002) were filled with the solutions and the MST curves were measured at 25 °C.

MIF [5] = target: T2, MIF; assay: Jump dilution assay (reversibility of binding); assay type: biochemical; conditions: 25 μM 6y, 10 min preincubation, 20-fold dilution, 20 min
Procedure: To investigate the reversibility of binding, we performed the activity recovery experiment based on pre-incubation of MIF with the inhibitor at saturated concentration followed by jump dilution. The experiment aimed to study the reversibility of the MIF complex with 6y; thus, MIF was preincubated with 25 μM 6y for 10 min before 20-fold dilution and then tested for residual enzyme activity. After 20 min of residence time, MIF tautomerase activity recovered comparably to that expected for instantaneously reversible inhibitors (Figure 4b).
The solution of the enzyme (1.4 μM) was preincubated with a saturating concentration of inhibitor 6y (25 μM) for 10 min. Then, the enzyme–inhibitor mixture was diluted 20-fold with boric acid buffer, then 50 μL of the mixture was mixed with 50 μL of 2 mM PP solution in ammonium acetate buffer, and recovery of the activity was measured over 20 min. In the control groups, no enzyme/inhibitor was added.

HeLa cells [6] = assay: Immunofluorescence staining and confocal microscopy (MIF and AIF nuclear translocation); assay type: cell-based
Procedure: Next, we investigated the mechanism by which 6y protects genome DNA. Considering that […] is a crucial step in parthanatos, we tested if 6y interferes with MIF/AIF binding in vitro. […] Under control conditions, MIF and AIF are mainly located in the cytosol. Upon MNNG treatment, both MIF and AIF translocated to the nucleus.
Immunofluorescence staining was applied to cells to determine the nuclear trans-localization of AIF and MIF. HeLa cells were seeded onto a coverslip and treated with or without 100 μM 6y for 3 h. Then, parthanatos was induced by MNNG (50 μM, 15 min). The same amount of medium in the absence of MNNG was added for the negative control group. After overnight incubation, the cells were fixed with methanol and blocked with 2% BSA in 0.1% PBS-T. AIF and MIF were detected by AIF Monoclonal Antibody (7F7AB10, Invitrogen) and MIF Polyclonal Antibody (PA5-27343, Invitrogen), respectively. Then, AIF and MIF primary antibodies were visualized by Alexa Fluor 647 conjugated anti-Mouse IgG (Invitrogen) and Alexa Fluor 488 conjugated anti-rabbit IgG (Cell Signaling Technology, Leiden, the Netherlands), respectively. After washing, coverslips were mounted onto objective slides with an anti-fading mounting medium with NucBlue stain (Invitrogen). The pictures were acquired using a Leica SP8 confocal laser scanning microscope and analyzed by ImageJ.

What does the source list for O=C(Nc1ccccc1)c1ccc(-n2cc(C(=O)NCc3cccs3)nn2)cc1 [Compound 6y, 1-(4-(Phenylcarbamoyl)phenyl)-N-(thiophen-2-ylmethyl)-1H-1,2,3-triazole-4-carboxamide]?
Restoration of original cell phenotype after MNNG (HeLa cells [1]): mainly (but not completely) restored; Solubility [2]: limited solubility; IC50 (MIF/AIF binding): 12.3 µM; EC50 (HeLa cells [3]): ~8 µM; EC50 (HeLa cells [3]; Homo sapiens): 7.7 ± 2.1 µM; Kd (MIF [4]): 95 µM; Reversibility of binding to MIF (MIF [5]): reversible; AIF nuclear translocation upon MNNG stimulation (HeLa cells [6]; 100 μM 6y, MNNG 50 μM 15 min): uninfluenced; MIF nuclear translocation upon MNNG stimulation (HeLa cells [6]; 100 μM 6y, MNNG 50 μM 15 min): blocks MIF nuclear translocation; MIF localization under control conditions (HeLa cells [6]; without MNNG): did not affect MIF localization
